# System: yeast genes (expressed mRNA)
# Assay: DNA chip measurement of expressed mRNA of yeast genes after culture with a toxic chemical substance
# Type: cell-based, Saccharomyces cerevisiae S288C
# Method in brief: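 Two-hour exposure of growing S. cerevisiae S288C (YPD, 25° C) to a sublethal toxicant preceded RNA isolation. Fluorescent cDNA was hybridized to a whole-genome array; a treated-to-untreated signal ratio of two or more was taken as significant.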
structure (smiles),measurement,setting,value
"N#Cc1c(Cl)c(Cl)c(Cl)c(C#N)c1Cl [(9), 2,4,5,6-Tetrachloro-1,3-benzenedicarbonitrile]",The level of expressed mRNA in the presence of chemical substance/The level of expressed mRNA in the absence of chemical substance,"yeast gene YFL010C, cultured two hours with substance",3.1
same,The level of expressed mRNA in the presence of chemical substance/The level of expressed mRNA in the absence of chemical substance,"yeast gene YFL014W, DNA repair protein genes, cultured two hours with substance",13.1
same,The level of expressed mRNA in the presence of chemical substance/The level of expressed mRNA in the absence of chemical substance,"yeast gene YFL024C, cultured two hours with substance",0.5
same,The level of expressed mRNA in the presence of chemical substance/The level of expressed mRNA in the absence of chemical substance,"yeast gene YFL030W, metabolism protein genes",24.5
same,The level of expressed mRNA in the presence of chemical substance/The level of expressed mRNA in the absence of chemical substance,"yeast gene YFL032W, cultured two hours with substance",0.5
same,The level of expressed mRNA in the presence of chemical substance/The level of expressed mRNA in the absence of chemical substance,yeast gene YFL056C,162.3
same,The level of expressed mRNA in the presence of chemical substance/The level of expressed mRNA in the absence of chemical substance,"yeast gene YFL056C, cultured for two hours with substance",162.3
same,The level of expressed mRNA in the presence of chemical substance/The level of expressed mRNA in the absence of chemical substance,yeast gene YFL057C,51.8
same,The level of expressed mRNA in the presence of chemical substance/The level of expressed mRNA in the absence of chemical substance,"yeast gene YFL057C, cultured for two hours with substance",51.8
same,The level of expressed mRNA in the presence of chemical substance/The level of expressed mRNA in the absence of chemical substance,"yeast gene YFR020W, cultured two hours with substance",3.7
same,The level of expressed mRNA in the presence of chemical substance/The level of expressed mRNA in the absence of chemical substance,yeast gene YFR030W,24.1
same,The level of expressed mRNA in the presence of chemical substance/The level of expressed mRNA in the absence of chemical substance,"yeast gene YFR042W, cultured two hours with substance",2.8
same,The level of expressed mRNA in the presence of chemical substance/The level of expressed mRNA in the absence of chemical substance,"yeast gene YGL037C, cultured two hours with substance",2.1
same,The level of expressed mRNA in the presence of chemical substance/The level of expressed mRNA in the absence of chemical substance,"yeast gene YGL047W, cultured two hours with substance",4.5
same,The level of expressed mRNA in the presence of chemical substance/The level of expressed mRNA in the absence of chemical substance,"yeast gene YGL053W, cultured two hours with substance",3.3
same,The level of expressed mRNA in the presence of chemical substance/The level of expressed mRNA in the absence of chemical substance,"yeast gene YGL091C, DNA repair protein genes, cultured two hours with substance",10.8
same,The level of expressed mRNA in the presence of chemical substance/The level of expressed mRNA in the absence of chemical substance,"yeast gene YGL098W, cultured two hours with substance",1.2
same,The level of expressed mRNA in the presence of chemical substance/The level of expressed mRNA in the absence of chemical substance,yeast gene YGL104C,4.6
same,The level of expressed mRNA in the presence of chemical substance/The level of expressed mRNA in the absence of chemical substance,"yeast gene YGL121C, cultured two hours with substance",7.0
same,The level of expressed mRNA in the presence of chemical substance/The level of expressed mRNA in the absence of chemical substance,"yeast gene YGL136C, cultured two hours with substance",1.3
same,The level of expressed mRNA in the presence of chemical substance/The level of expressed mRNA in the absence of chemical substance,"yeast gene YGL227W, cultured two hours with substance",2.4
same,The level of expressed mRNA in the presence of chemical substance/The level of expressed mRNA in the absence of chemical substance,"yeast gene YGR010W, cultured two hours with substance",13.6
same,The level of expressed mRNA in the presence of chemical substance/The level of expressed mRNA in the absence of chemical substance,yeast gene YGR043C,10.9
same,The level of expressed mRNA in the presence of chemical substance/The level of expressed mRNA in the absence of chemical substance,"yeast gene YGR043C, cultured for two hours with substance",10.9
same,The level of expressed mRNA in the presence of chemical substance/The level of expressed mRNA in the absence of chemical substance,"yeast gene YGR101W, cultured two hours with substance",4.0
same,The level of expressed mRNA in the presence of chemical substance/The level of expressed mRNA in the absence of chemical substance,"yeast gene YGR110W, cultured two hours with substance",6.4
same,The level of expressed mRNA in the presence of chemical substance/The level of expressed mRNA in the absence of chemical substance,"yeast gene YGR130C, cultured two hours with substance",2.0
same,The level of expressed mRNA in the presence of chemical substance/The level of expressed mRNA in the absence of chemical substance,"yeast gene YGR134W, cultured two hours with substance",2.4
same,The level of expressed mRNA in the presence of chemical substance/The level of expressed mRNA in the absence of chemical substance,"yeast gene YGR142W, cultured two hours with substance",36.8
same,The level of expressed mRNA in the presence of chemical substance/The level of expressed mRNA in the absence of chemical substance,"yeast gene YGR146C, cultured two hours with substance",0.8
same,The level of expressed mRNA in the presence of chemical substance/The level of expressed mRNA in the absence of chemical substance,"yeast gene YGR154C, cultured two hours with substance",25.2
same,The level of expressed mRNA in the presence of chemical substance/The level of expressed mRNA in the absence of chemical substance,yeast gene YGR197C (transport facilitation protein gene),16.7
same,The level of expressed mRNA in the presence of chemical substance/The level of expressed mRNA in the absence of chemical substance,"yeast gene YGR284C, cultured two hours with substance",4.3
same,The level of expressed mRNA in the presence of chemical substance/The level of expressed mRNA in the absence of chemical substance,"yeast gene YHR016C, cultured two hours with substance",2.8
same,The level of expressed mRNA in the presence of chemical substance/The level of expressed mRNA in the absence of chemical substance,"yeast gene YHR029C, cultured two hours with substance",13.6
same,The level of expressed mRNA in the presence of chemical substance/The level of expressed mRNA in the absence of chemical substance,"yeast gene YHR138C, cultured two hours with substance",5.3
same,The level of expressed mRNA in the presence of chemical substance/The level of expressed mRNA in the absence of chemical substance,"yeast gene YHR199C, cultured two hours with substance",8.6
same,The level of expressed mRNA in the presence of chemical substance/The level of expressed mRNA in the absence of chemical substance,"yeast gene YHR209W, cultured two hours with substance",2.9
same,The level of expressed mRNA in the presence of chemical substance/The level of expressed mRNA in the absence of chemical substance,"yeast gene YIL023C, cultured two hours with substance",3.5
same,The level of expressed mRNA in the presence of chemical substance/The level of expressed mRNA in the absence of chemical substance,"yeast gene YIL024C, cultured two hours with substance",2.2
same,The level of expressed mRNA in the presence of chemical substance/The level of expressed mRNA in the absence of chemical substance,"yeast gene YIL041W, cultured two hours with substance",1.8
same,The level of expressed mRNA in the presence of chemical substance/The level of expressed mRNA in the absence of chemical substance,"yeast gene YIL087C, cultured two hours with substance",2.4
same,The level of expressed mRNA in the presence of chemical substance/The level of expressed mRNA in the absence of chemical substance,"yeast gene YIL097W, cultured two hours with substance",4.9
same,The level of expressed mRNA in the presence of chemical substance/The level of expressed mRNA in the absence of chemical substance,"yeast gene YIL117C, cultured two hours with substance",2.3
same,The level of expressed mRNA in the presence of chemical substance/The level of expressed mRNA in the absence of chemical substance,"yeast gene YIL143C, DNA repair protein genes, cultured two hours with substance",7.1
same,The level of expressed mRNA in the presence of chemical substance/The level of expressed mRNA in the absence of chemical substance,"yeast gene YIL153W, DNA repair protein genes, cultured two hours with substance",4.3
same,The level of expressed mRNA in the presence of chemical substance/The level of expressed mRNA in the absence of chemical substance,"yeast gene YJL020C, cultured two hours with substance",1.3
same,The level of expressed mRNA in the presence of chemical substance/The level of expressed mRNA in the absence of chemical substance,"yeast gene YJL057C, cultured two hours with substance",7.3
same,The level of expressed mRNA in the presence of chemical substance/The level of expressed mRNA in the absence of chemical substance,"yeast gene YJL066C, cultured two hours with substance",2.0
same,The level of expressed mRNA in the presence of chemical substance/The level of expressed mRNA in the absence of chemical substance,"yeast gene YJL082W, cultured two hours with substance",1.4
